Patent publication US7605269B2, “Thiophene derivatives as Sphingosine-1-phosphate-1 receptor agonists” (Actelion Pharmaceuticals Ltd., priority 2005, dated 2009)

How the values were obtained:
[1] = biological target: recombinant human S1P1 receptor (Homo sapiens, UniProt P21453); assay: GTPγS assay to determine EC50 values; type: biochemical; details: 35S-GTPγS binding, membrane preparations of CHO cells expressing recombinant human S1P1 receptor
Procedure: The pH is 7.4. Test compounds are dissolved and diluted in 100% DMSO and pre-incubated at room temperature for 30 min in 150 μl of the above assay buffer, in the absence of ^35S-GTPγS. After addition of 50 μl of ^35S-GTPγS, the assay is incubated for 1 h at room temperature. […] Membrane-bound ^35S-GTPγS is measured with a TopCount from Packard Biosciences.
Specific binding is determined by subtracting non-specific binding from maximal binding. Maximal binding is the amount of cpm bound to the Multiscreen plate in the presence of 10 μM of S1P. Non-specific binding is the amount of binding in the absence of an agonist in the assay.

[2] = system: circulating lymphocytes; assay: Assessment of in vivo efficacy: circulating lymphocytes after oral administration; design: species or system rat; details: 6 h after oral administration of 10 mg/kg, normotensive male Wistar rats, compared to vehicle-treated group

Sequence of recombinant human S1P1 receptor (P21453 whole entry): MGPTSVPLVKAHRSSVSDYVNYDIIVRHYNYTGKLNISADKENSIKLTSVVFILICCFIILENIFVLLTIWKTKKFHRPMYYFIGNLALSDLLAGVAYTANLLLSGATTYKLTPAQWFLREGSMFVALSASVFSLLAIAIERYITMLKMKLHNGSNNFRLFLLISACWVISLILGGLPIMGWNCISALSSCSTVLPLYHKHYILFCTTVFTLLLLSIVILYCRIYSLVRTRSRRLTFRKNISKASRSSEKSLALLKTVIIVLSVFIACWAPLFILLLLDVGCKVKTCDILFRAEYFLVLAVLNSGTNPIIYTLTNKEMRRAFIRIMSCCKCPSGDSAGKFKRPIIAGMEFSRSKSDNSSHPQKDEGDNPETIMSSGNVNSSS

Row | Compound | EC50 [1] [nM] | Lymphocyte counts [2] [%]
1 | Cc1cc(-c2nc(-c3sc(C)c4c3C[C@@H]3[C@H]4C3(C)C)no2)cc(C)c1O [Example 38, 2,6-dimethyl-4-[3-((1aS,5aR)-1,1,2-trimethyl-1,1a,5,5a-tetrahydro-3-thia-cyclopropa[a]pentalen-4-yl)-[1,2,4]oxadiazol-5-yl]-phenol] | 1.6 | 
2 | Cc1cc(-c2noc(-c3sc(C)c4c3C[C@@H]3[C@H]4C3(C)C)n2)cc(C)c1OCCCN1CCCC1C(=O)O (stereo partly drawn) [Example 32, 1-(3-{2,6-dimethyl-4-[5-((1aS,5aR)-1,1,2-trimethyl-1,1a,5,5a-tetrahydro-3-thia-cyclopropa[a]pentalen-4-yl)-[1,2,4]oxadiazol-3-yl]-phenoxy}-propyl)-pyrrolidine-2-carboxylic acid] | 8.8 | 
3 | Cc1cc(-c2noc(-c3sc(C)c4c3C[C@@H]3[C@H]4C3(C)C)n2)cc(C)c1OCCCNCCO [Example 27, 2-(3-{2,6-dimethyl-4-[5-((1aS,5aR)-1,1,2-trimethyl-1,1a,5,5a-tetrahydro-3-thia-cyclopropa[a]pentalen-4-yl)-[1,2,4]oxadiazol-3-yl]-phenoxy}-propylamino)-ethanol] | 6.1 | 

Further lines, with some results ahead:

Row | EC50 [1] [nM] | Compound | Lymphocyte counts [2] [%]
4 | 1.4 | Cc1cc(-c2nc(-c3sc(C)c4c3C[C@@H]3[C@H]4C3(C)C)no2)cc(C)c1OCC(CO)CO [Example 43, 2-{2,6-dimethyl-4-[3-((1aS,5aR)-1,1,2-trimethyl-1,1a,5,5a-tetrahydro-3-thia-cyclopropa[a]pentalen-4-yl)-[1,2,4]oxadiazol-5-yl]-phenoxymethyl}-propane-1,3-diol] | 
5 | 12 | Cc1sc(-c2nc(-c3ccc(OC[C@H](O)CO)cc3)no2)c2c1[C@H]1[C@@H](C2)C1(C)C [Example 6, (2R)-3-{4-[5-((1aS,5aR)-1,1,2-trimethyl-1,1a,5,5a-tetrahydro-3-thia-cyclopropa[a]pentalen-4-yl)-[1,2,4]oxadiazol-3-yl]-phenoxy}-propane-1,2-diol] | 
6 | 1.1 | Cc1cc(-c2nc(-c3sc(C)c4c3C[C@@H]3[C@H]4C3(C)C)no2)cc(C)c1OCCO [Example 39, 2-{2,6-dimethyl-4-[3-((1aS,5aR)-1,1,2-trimethyl-1,1a,5,5a-tetrahydro-3-thia-cyclopropa[a]pentalen-4-yl)-[1,2,4]oxadiazol-5-yl]-phenoxy}-ethanol] | 
7 | 1.2 | Cc1cc(-c2noc(-c3sc(C)c4c3C[C@@H]3[C@H]4C3(C)C)n2)cc(C)c1OCC(CO)CO [Example 19, 2-{2,6-dimethyl-4-[5-((1aS,5aR)-1,1,2-trimethyl-1,1a,5,5a-tetrahydro-3-thia-cyclopropa[a]pentalen-4-yl)-[1,2,4]oxadiazol-3-yl]-phenoxymethyl}-propane-1,3-diol] | −56
8 | 4.8 | Cc1cc(-c2noc(-c3sc(C)c4c3C[C@@H]3[C@H]4C3(C)C)n2)cc(C)c1OCCCN [Example 24, 3-{2,6-dimethyl-4-[5-((1aS,5aR)-1,1,2-trimethyl-1,1a,5,5a-tetrahydro-3-thia-cyclopropa[a]pentalen-4-yl)-[1,2,4]oxadiazol-3-yl]-phenoxy}-propylamine] | 
